The test system of the assay is BDF1 mice, P388 leukemia ip, median survival T/C. The assay is described as follows: NCI In Vivo Anticancer Drug Screen. Data for tumor model P388 Leukemia (intraperitoneal) in B6D2F1 (BDF1) mice. The conditions noted are these: endpoint: median survival time, higher = longer survival. The gist of the method:
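Mice carrying the transplantable tumour receive compound or vehicle. Survival is followed in each arm, and the treated measure is divided by the vehicle measure.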

The mark [1] stands for this setting: dose: 50.0 mg/kg/injection, schedule: Q04DX003 (ip), vehicle: Klucel (hydroxypropylcellulose) (HPC).
The mark [2] stands for this setting: dose: 100.0 mg/kg/injection, schedule: Q04DX003 (ip), vehicle: Klucel (hydroxypropylcellulose) (HPC).
The mark [3] stands for this setting: dose: 200.0 mg/kg/injection, schedule: Q04DX003 (ip), vehicle: Klucel (hydroxypropylcellulose) (HPC).
The mark [4] stands for this setting: dose: 25.0 mg/kg/injection, schedule: Q04DX003 (ip), vehicle: Klucel (hydroxypropylcellulose) (HPC).
[5] abbreviates: dose: 100.0 mg/kg/injection, schedule: Q04DX003 (ip), vehicle: saline with Tween-80.
The mark [6] stands for this setting: dose: 200.0 mg/kg/injection, schedule: Q04DX003 (ip), vehicle: saline with Tween-80.
Setting [7] is: dose: 6.25 mg/kg/injection, schedule: Q01DX009 (ip), vehicle: saline.
[8] abbreviates: dose: 25.0 mg/kg/injection, schedule: Q01DX009 (ip), vehicle: saline.
[9] abbreviates: dose: 50.0 mg/kg/injection, schedule: Q01DX009 (ip), vehicle: saline.
Setting [10] is: dose: 100.0 mg/kg/injection, schedule: Q01DX009 (ip), vehicle: saline.
Setting [11] is: dose: 25.0 mg/kg/injection, schedule: Q01DX009 (ip), vehicle: saline with Tween-80.
The mark [12] stands for this setting: dose: 100.0 mg/kg/injection, schedule: Q01DX009 (ip), vehicle: saline with Tween-80.
[13] abbreviates: dose: 200.0 mg/kg/injection, schedule: Q01DX009 (ip), vehicle: saline with Tween-80.

Where “and” joins values, the source holds several entries; their conditions need not be identical. Equal entries are not always repeated. Toxic doses and inconclusive results are not listed.

With `NNC(=S)SCc1ccccc1`, the T/C runs as follows: (dose: 15.0 mg/kg/injection, schedule: Q01DX009 (ip), vehicle: saline with Tween-80) 106 % of control; (dose: 30.0 mg/kg/injection, schedule: Q01DX009 (ip), vehicle: saline with Tween-80) 98 % of control.
Turning to `O=S1(=O)C(Cc2ccccc2)CCCN1c1ccccc1` (stereo not drawn), the T/C was 104 % of control (dose: 100.0 mg/kg/injection, schedule: Q04DX002 (ip), vehicle: saline with Tween-80); 104 % of control (dose: 200.0 mg/kg/injection, schedule: Q04DX002 (ip), vehicle: saline with Tween-80); 102 % of control (dose: 400.0 mg/kg/injection, schedule: Q04DX002 (ip), vehicle: saline with Tween-80).
With `O=C(COc1ccc(Cl)c(Cl)c1)N(Cc1ccccc1)Cc1cccnc1`, the T/C under setting [1] was 86 % of control, the T/C under setting [2] is 95 % of control and the T/C under setting [3] was 104 % of control.
For `CC1=C(Br)C(=O)C(Br)=C(Br)C1=O`, the T/C was 104 % of control under setting [4]; 109 % of control (dose: 35.0 mg/kg/injection, schedule: Q01DX009 (ip), vehicle: Klucel (hydroxypropylcellulose) (HPC)); 95 % of control (dose: 37.5 mg/kg/injection, schedule: Q01DX001 (ip), vehicle: Klucel (hydroxypropylcellulose) (HPC)); 100 % of control under setting [1]; 90 % of control (dose: 55.0 mg/kg/injection, schedule: Q01DX009 (ip), vehicle: Klucel (hydroxypropylcellulose) (HPC)); 109 % of control (dose: 75.0 mg/kg/injection, schedule: Q01DX001 (ip), vehicle: Klucel (hydroxypropylcellulose) (HPC)). The T/C was 90 % of control under setting [2] and 100 % of control (dose: 150.0 mg/kg/injection, schedule: Q01DX001 (ip), vehicle: Klucel (hydroxypropylcellulose) (HPC)).
Turning to `CN1CCCc2cccc(NC(=O)C3CCCNC3=O)c21` (stereo not drawn), the T/C under setting [5] was 101 % of control; the T/C under setting [6] was 100 % of control; the T/C (dose: 400.0 mg/kg/injection, schedule: Q04DX003 (ip), vehicle: saline with Tween-80) was 116 % of control.
With `CCCCCCC1OCC2(CO1)COC(CCCCCC)OC2` (stereo not drawn), the T/C runs as follows: under setting [5], 90 % of control; under setting [6], 86 % of control.
For `COc1cccc2c1C(=O)c1c(O)c3c(c(O)c1C2=O)C[C@@](O)(C(=O)CO)C[C@@H]3OC1CC(NC(=S)Nc2ccc3ccccc3c2)C(O)C(C)O1` (stereo partly drawn), the T/C was 95 % of control (dose: 1.56 mg/kg/injection, schedule: Q01DX009 (ip), vehicle: saline); 86 % of control (dose: 3.12 mg/kg/injection, schedule: Q01DX009 (ip), vehicle: saline); 94 % of control under setting [7]; 99 % of control and 107 % of control under setting [8]; 107 % of control under setting [9]; 96 % of control under setting [10].
Consider `O=C1c2ccccc2-c2cccc3cccc1c23`, for which the T/C runs as follows: (dose: 6.25 mg/kg/injection, schedule: Q01DX001 (ip), vehicle: saline sonified) 96 % of control; (dose: 12.5 mg/kg/injection, schedule: Q01DX001 (ip), vehicle: saline sonified) 96 % of control; (dose: 25.0 mg/kg/injection, schedule: Q01DX001 (ip), vehicle: saline sonified) 92 % of control.
On to `CC(O)Cc1c[nH]c(=O)[nH]c1=O` (stereo not drawn), for which the T/C (dose: 100.0 mg/kg/injection, schedule: Q01DX009 (ip), vehicle: water) was 92 % of control; the T/C (dose: 100.0 mg/kg/injection, schedule: Q04DX003 (ip), vehicle: water) is 90 % of control; the T/C (dose: 200.0 mg/kg/injection, schedule: Q01DX009 (ip), vehicle: water) was 96 % of control; the T/C (dose: 200.0 mg/kg/injection, schedule: Q04DX003 (ip), vehicle: water) was 105 % of control; the T/C (dose: 400.0 mg/kg/injection, schedule: Q04DX003 (ip), vehicle: water) was 96 % of control.
Turning to `CC(=O)N(C)N(Cc1ccc(C#N)cc1)C(C)=O`, the T/C is 94 % of control under setting [4]; 100 % of control under setting [1]; 99 % of control under setting [2]; 100 % of control under setting [3]; 111 % of control (dose: 400.0 mg/kg/injection, schedule: Q04DX003 (ip), vehicle: Klucel (hydroxypropylcellulose) (HPC)).
As for `CCC1OCCN1C(C)C` (stereo not drawn), the T/C is 108 % of control under setting [9] and 108 % of control under setting [10].
As to `O=C(Cn1ccc(O)cc1=O)N1CCC2(CC1)SSC1(CCN(C(=O)Cn3ccc(O)cc3=O)CC1)S2`, the T/C was 100 % of control under setting [10]; 105 % of control (dose: 100.0 mg/kg/injection, schedule: Q04DX003 (ip), vehicle: saline); 100 % of control (dose: 200.0 mg/kg/injection, schedule: Q01DX009 (ip), vehicle: saline); 116 % of control (dose: 200.0 mg/kg/injection, schedule: Q04DX003 (ip), vehicle: saline); 95 % of control (dose: 400.0 mg/kg/injection, schedule: Q01DX009 (ip), vehicle: saline); 122 % of control (dose: 400.0 mg/kg/injection, schedule: Q04DX003 (ip), vehicle: saline).
Regarding `COC(=O)C1C(O)C(C)C(O)C(C)C=C(C)C2=C3C(=C(C)C(=O)c4c(O)c(c(C)c(OC(C)=O)c43)NC(=O)C(C)=C/C=C\C(C)C(O)C(C)C1O)OCO2` (stereo not drawn), the T/C runs as follows: (dose: 25.0 mg/kg/injection, schedule: Q01DX009 (ip), vehicle: Klucel (hydroxypropylcellulose) (HPC)) 101 % of control; under setting [11], 90 % of control; (dose: 50.0 mg/kg/injection, schedule: Q01DX009 (ip), vehicle: Klucel (hydroxypropylcellulose) (HPC)) 110 % of control and 97 % of control; (dose: 50.0 mg/kg/injection, schedule: Q01DX009 (ip), vehicle: saline with Tween-80) 109 % of control; (dose: 100.0 mg/kg/injection, schedule: Q01DX009 (ip), vehicle: Klucel (hydroxypropylcellulose) (HPC)) 101 % of control and 113 % of control; under setting [12], 90 % of control.
Regarding `CC1C[N+](C)=C2CCCCC2=C1N` (stereo not drawn), the T/C under setting [7] is 95 % of control; the T/C (dose: 12.5 mg/kg/injection, schedule: Q01DX009 (ip), vehicle: saline) is 100 % of control; the T/C under setting [8] is 86 % of control.
As for `C[N+](C)(CC(=O)Nc1ccc(Cl)c(Cl)c1)CC(=O)c1ccc(Cl)c(Cl)c1`, where the note is “dose: 400.0 mg/kg/injection, schedule: Q04DX003 (ip), vehicle: saline sonified”, the T/C was 87 % of control.
Take `O=C(O)C1CSC(c2ccccc2)N1` (stereo not drawn): the T/C is 111 % of control under setting [11], 109 % of control under setting [12] and 100 % of control under setting [13].
On to `COC(=O)CCN1CC1`, for which the T/C runs as follows: (dose: 100.0 mg/kg/injection, schedule: Q01DX001 (ip), vehicle: saline with Tween-80) 101 % of control; (dose: 200.0 mg/kg/injection, schedule: Q01DX001 (ip), vehicle: saline with Tween-80) 107 % of control; (dose: 400.0 mg/kg/injection, schedule: Q01DX001 (ip), vehicle: saline with Tween-80) 92 % of control.
For `C=C(C)COC(N)=O`, the T/C was 108 % of control under setting [12]; 104 % of control under setting [13]; 87 % of control (dose: 400.0 mg/kg/injection, schedule: Q01DX009 (ip), vehicle: saline with Tween-80).
Take `Cc1c(N)nc(C(CC(N)=O)NCC(N)C(N)=O)nc1C(=O)NC(C(=O)NC(C)C(O)C(C)C(=O)NC(C(=O)NCCc1nc(-c2nc(C(=O)NCCC[S+](C)C)cs2)cs1)C(C)O)C(OC1OC(CO)C(O)C(O)C1OC1OC(CO)C(O)C(OC(N)=O)C1O)c1cnc[nH]1` (stereo not drawn): the T/C (dose: 0.5 mg/kg/injection, schedule: Q01DX009 (ip), vehicle: saline) is 115 % of control; the T/C (dose: 1.0 mg/kg/injection, schedule: Q01DX009 (ip), vehicle: saline) is 115 % of control and 116 % of control; the T/C (dose: 2.0 mg/kg/injection, schedule: Q01DX009 (ip), vehicle: saline) was 120 % of control; the T/C (dose: 8.0 mg/kg/injection, schedule: Q01DX009 (ip), vehicle: saline) is 163 % of control; the T/C (dose: 16.0 mg/kg/injection, schedule: Q01DX009 (ip), vehicle: saline) is 90 % of control and 93 % of control and 118 % of control; the T/C (dose: 32.0 mg/kg/injection, schedule: Q01DX009 (ip), vehicle: saline) was 100 % of control.

The values above are taken from PubChem BioAssay AID328 (DTP/NCI, 2004).
